# System: KPC-N cells
# Assay: Antitumor effect by TLR3 ligand, pancreatic cancer model
# Format: in vivo, C57BL/6 mice
# Details: 50 μg intratumoral on day 8; N=6
# Method: PolyI:C (Poly (I:C) (HMW) VacciGrade™: InvivoGen), which is a TLR3 ligand, was used.
# 1.5×10^6 KPC-N cells were subcutaneously transplanted to the back of 6- to 8-week-old C57BL/6 mice, and two groups (each group N=6) of non-treatment group (Control) and polyI:C group were established. To the tumor of the mice on day 8 after subcutaneous transplantation was topically injected (intratumoral administration) 50 μg of polyI:C.
substance,measurement,value
polyI:C,antitumor effect (tumor size),no antitumor effect

# From patent US20250222108A1, “MEDICAL AGENT INCLUDING ADJUVANT AND COMPOSITE OF PHOTOSENSITIVE MOLECULE AND MOLECULE BINDING TO CANCER-SPECIFIC CELL SURFACE MOLECULE” (KYOTO UNIVERSITY, priority 2021, published 2025)
